Like-named read-outs stand apart in the source and are kept apart here. No end group written: not given here.
What was measured:
[1] = system: S. aureus (ATCC 6538); assay type: cell-based, Staphylococcus aureus
Description: (§1) Two MDR bacteria, MDR-E. coli (LZ-7, drug resistance: compound sulfamethoxazole, ampicillin, gentamicin, ciprofloxacin, levofloxacin) and MDR-A. baumannii (AB-29, drug resistance: 11 kinds of antibiotics including cephalosporins), along with three pathogenic bacteria, E. coli (ATCC 25922), S. aureus (ATCC 6538), and A. baumannii (309-14) were included in the study. A single colony of each bacterium was cultured in Luria-Bertani (LB) medium at 37°C and 180 rpm for 12–16 h until the logarithmic growth phase for use.
(§2) The MIC of the peptides against a range of bacteria was determined using the microbroth dilution method with slight modifications ([62]). In brief, the bacteria mentioned above were dispersed in the LB (10^5 CFU mL^−1) and were mixed with gradient concentrations (0.25 μM–16 μM) of SAMPs in the 96-well plate (n = 3). After incubation at 37°C for 16–18 h, the absorbance at 600 nm was measured using a microplate reader (Thermo Fisher Scientific, Multiskan MK3, China). The lowest peptide concentration with no absorbance increase was defined as the MICs. The bacterial solution in the 96-well plate was then transferred to solid LB medium to culture single colonies (n = 3), and the lowest peptide concentration at which almost no colonies survive (less than 0.01%) was defined as the MBCs.

[2] = system: MDR-A. baumannii (AB-29); assay type: cell-based, Acinetobacter baumannii
Description: as §1, §2

[3] = system: A. baumannii (309-14); assay type: cell-based, Acinetobacter baumannii
Description: as §1, §2

[4] = system: S. aureus and E. coli; assay: Drug resistance assay (serial passage); assay type: cell-based; settings: Colistin E 4 μg mL−1, 30 days
Description: The evaluation of drug resistance in SAMPs was performed through MIC value detection ([74]). Resistance was defined as a greater than fourfold increase in the MIC from its initial value. S. aureus and E. coli grown in LB medium supplemented with 0.5 × MIC of each SAMP were repeated for 30 days, followed by determination of MIC values using the same methodology outlined above (n = 3). Meanwhile, Colistin E (4 μg mL^-1) was used as the control group to induce bacterial resistance in the same way.

[5] = system: MDR-E. coli (LZ-7); assay type: cell-based, Escherichia coli
Description: as §1, §2

[6] = system: E. coli (ATCC 25922); assay type: cell-based, Escherichia coli
Description: as §1, §2

[7] = system: S. aureus, E. coli, A. baumannii, MDR-E. coli, MDR-A. baumannii; assay type: cell-based
Description: as §1, §2

[8] = system: E. coli; assay type: cell-based, Escherichia coli; settings: 12 h
Description: as §2
(§3) Based on previous methods, stability was analyzed by monitoring the changes in the antimicrobial efficacy of SAMPs in the presence of salts and serum ([37], [38]). The SAMPs underwent incubation with physiological salts (150 mM NaCl, 4.5 mM KCl) or serum at 37°C for 12 h, followed by measurement of their MICs using the previously outlined method (n = 3).

[9] = system: S. aureus; assay type: cell-based, Staphylococcus aureus; settings: 12 h
Description: as §2, §3

## Colistin E [reference compound]
[1]; S. aureus, microbroth dilution in LB, 10^5 CFU mL−1, 37°C, 16–18 h, absorbance 600 nm, n = 3
  MIC: >256 µM
[2]; MDR-A. baumannii, microbroth dilution in LB, 10^5 CFU mL−1, 37°C, 16–18 h, absorbance 600 nm, n = 3
  MIC: 128 µM
[3]; A. baumannii, microbroth dilution in LB, 10^5 CFU mL−1, 37°C, 16–18 h, absorbance 600 nm, n = 3
  MIC: 32 µM
[4]
  antimicrobial activity after resistance induction: significant decrease in the antimicrobial activity
[5]; MDR-E. coli, microbroth dilution in LB, 10^5 CFU mL−1, 37°C, 16–18 h, absorbance 600 nm, n = 3
  MIC: >256 µM
[6]; E. coli, microbroth dilution in LB, 10^5 CFU mL−1, 37°C, 16–18 h, absorbance 600 nm, n = 3
  MIC: 256 µM

## FLALALIQEAIAKLK-NH2 [FA, Kassporin-KS1, reference compound]
[1]; ATCC 6538
  MBC: >128 µM
  MIC: >32 µM
[2]; MDR- (AB-29)
  MBC: >128 µM
  MIC: >32 µM
[3]; 309-14
  MBC: >128 µM
  MIC: >32 µM
[7]
  MIC, three prevalent pathogenic bacteria: > 32 µM
[5]; MDR- (LZ-7)
  MBC: >128 µM
  MIC: >32 µM
[6]; ATCC 25922
  MBC: >128 µM
  MIC: >32 µM

## FLKLRLWGKLLWKLK-NH2 [GK]
[8]
  MIC after treatment, KCl: 2 µM
  MIC after treatment, NaCl: 2 µM
  MIC after treatment, Serum: 2 µM
[1]; ATCC 6538
  MBC: 2 µM
  MIC: 1 µM
[2]; MDR- (AB-29)
  MBC: 4 µM
  MIC: 1 µM
[3]; 309-14
  MBC: 4 µM
  MIC: 2 µM
[9]
  MIC after treatment, KCl: 1 µM
  MIC after treatment, NaCl: 1 µM
  MIC after treatment, Serum: 1 µM
[5]; MDR- (LZ-7)
  MBC: 16 µM
  MIC: 16 µM
[6]; ATCC 25922
  MBC: 8 µM
  MIC: 2 µM

## FLKLRLWGRLLWKLK-NH2 [GR]
[8]
  MIC after treatment, KCl: 2 µM
  MIC after treatment, NaCl: 2 µM
  MIC after treatment, Serum: 2 µM
[1]; ATCC 6538
  MBC: 2 µM
  MIC: 1 µM
[2]; MDR- (AB-29)
  MBC: 2 µM
  MIC: 0.5 µM
[3]; 309-14
  MBC: 2 µM
  MIC: 2 µM
[9]
  MIC after treatment, KCl: 1 µM
  MIC after treatment, NaCl: 1 µM
  MIC after treatment, Serum: 1 µM
[5]; MDR- (LZ-7)
  MBC: 16 µM
  MIC: 16 µM
[6]; ATCC 25922
  MBC: 8 µM
  MIC: 2 µM

## FLKLRLWKKLLWKLK-NH2 [KK]
[8]
  MIC after treatment, KCl: 0.5 µM
  MIC after treatment, NaCl: 1 µM
  MIC after treatment, Serum: 0.5 µM
[1]; ATCC 6538
  MBC: 2 µM
  MIC: 0.5 µM
[2]; MDR- (AB-29)
  MBC: 1 µM
  MIC: 0.5 µM
[3]; 309-14
  MBC: 1 µM
  MIC: 0.5 µM
[9]
  MIC after treatment, KCl: 0.5 µM
  MIC after treatment, NaCl: 1 µM
  MIC after treatment, Serum: 0.5 µM
[5]; MDR- (LZ-7)
  MBC: 8 µM
  MIC: 2 µM
[6]; ATCC 25922
  MBC: 4 µM
  MIC: 0.5 µM

## FLKLRLWKRLLWKLK-NH2 [KR]
[8]
  MIC after treatment, KCl: 0.25 µM
  MIC after treatment, NaCl: 0.25 µM
  MIC after treatment, Serum: 0.25 µM
[1]; ATCC 6538
  MBC: 0.5 µM
  MIC: 0.25 µM
[2]; MDR- (AB-29)
  MBC: 0.25 µM
  MIC: 0.25 µM
[3]; 309-14
  MBC: 0.25 µM
  MIC: 0.25 µM
[7]
  MIC, common pathogenic bacteria and MDR bacteria: 0.25 to 2 µM
[9]
  MIC after treatment, KCl: 0.25 µM
  MIC after treatment, NaCl: 0.25 µM
  MIC after treatment, Serum: 0.25 µM
[5]; MDR- (LZ-7)
  MBC: 4 µM
  MIC: 1 µM
[6]; ATCC 25922
  MBC: 0.5 µM
  MIC: 0.25 µM

## FLKLRLWRKLLWKLK-NH2 [RK]
[8]
  MIC after treatment, KCl: 0.25 µM
  MIC after treatment, NaCl: 0.25 µM
  MIC after treatment, Serum: 0.25 µM
[1]; ATCC 6538
  MBC: 1 µM
  MIC: 0.25 µM
[2]; MDR- (AB-29)
  MBC: 0.5 µM
  MIC: 0.25 µM
[3]; 309-14
  MBC: 0.5 µM
  MIC: 0.5 µM
[7]
  MIC, common pathogenic bacteria and MDR bacteria: 0.25 to 2 µM
[9]
  MIC after treatment, KCl: 0.25 µM
  MIC after treatment, NaCl: 0.25 µM
  MIC after treatment, Serum: 0.25 µM
[5]; MDR- (LZ-7)
  MBC: 4 µM
  MIC: 2 µM
[6]; ATCC 25922
  MBC: 1 µM
  MIC: 0.25 µM

## FLKLRLWRRLLWKLK-NH2 [RR]
[8]
  MIC after treatment, KCl: 0.5 µM
  MIC after treatment, NaCl: 1 µM
  MIC after treatment, Serum: 0.5 µM
[1]; ATCC 6538
  MBC: 2 µM
  MIC: 0.5 µM
[2]; MDR- (AB-29)
  MBC: 2 µM
  MIC: 0.5 µM
[3]; 309-14
  MBC: 1 µM
  MIC: 1 µM
[9]
  MIC after treatment, KCl: 0.5 µM
  MIC after treatment, NaCl: 0.5 µM
  MIC after treatment, Serum: 0.5 µM
[5]; MDR- (LZ-7)
  MBC: 8 µM
  MIC: 2 µM
[6]; ATCC 25922
  MBC: 2 µM
  MIC: 0.5 µM

From paper PMC12888869, “A short antimicrobial peptides family demonstrates efficacy to infection via a multimodal mechanism of action” (Antimicrobial Agents and Chemotherapy, 2025)
